Test results as given in paper PMC6272185 (Molecules, 2015).
Converted amounts (≈) assume the structure as drawn. Where a name gives a salt, the structure may show the parent alone. Read-outs that look alike come from different tables or passages of the source.

Key:
[1] = system: NO production by LPS-stimulated RAW 264.7 macrophages; assay: Inhibition of NO production by LPS-stimulated macrophages (Griess); format: cell-based, murine; details: mean ± SD, n = 3
[2] = Macrophage cytotoxicity, LDH release assay; format: cell-based, murine; details: mouse, RAW 264.7 macrophages stimulated with LPS; LPS-stimulated RAW 264.7, LDH release; mean ± SD, n = 3
Protocol: Cytotoxic effects of chalcone samples on RAW 264.7 cell viability in cultures stimulated with LPS were determined using the LDH (lactate dehydrogenase) release assay as previously described [58]. Cytoplasmic enzyme LDH release into cell culture supernatants was detected using a commercial LDH kit (Doles, GO, Brazil). Cell death was expressed as percentage of LDH release, which was calculated using the following formula: percentage of LDH release = 100 × (test LDH release − spontaneous release)/(maximum release − spontaneous release). The maximum release was determined following dissolution of cell monolayers using 1% (vol/vol) Triton X-100. The spontaneous release was determined in supernatants from cultures incubated in the presence of LPS and DMSO, used as a solvent for chalcone samples.

M. bovis BCG = assay: microbe, parasite or virus in culture; format: cell-based, Mycobacterium bovis BCG; details: Mycobacterium tuberculosis variant bovis BCG, BCG, 168 h; for MIC50: read-out: MIC50 M. bovis BCG; for MIC90: read-out: MIC90 M. bovis BCG
[3] = system: TNF-α production by LPS-stimulated RAW 264.7 macrophages; assay: Inhibition of TNF-α production by LPS-stimulated macrophages (ELISA); format: cell-based, murine; details: Mus musculus, read-out: IC50 TNF-α
[4] = system: PGE2 production by LPS-stimulated RAW 264.7 macrophages; assay: Inhibition of PGE2 production by LPS-stimulated macrophages (ELISA); format: cell-based, murine; details: for IC50: Mus musculus, RAW264.7, 24 h, read-out: IC50 PGE2; for prostaglandin (PGE2) value: only LPS-treated cells 436.0 ± 5.8 pg/mL
Protocol: (§1) Murine RAW 264.7 macrophage cell line (American Type Culture Collection, Manassas, VA, USA), was cultured in Dulbecco’s modified Eagle’s medium (DMEM-F12) supplemented with 10% Fetal Bovine Serum (FBS) and gentamicin (50 µg/mL) in 5% CO2 atmosphere at 37 °C. For experiments, the cells were seeded in 96-well plates (1 × 10^5 cells/well) and incubated for 24 h at 37 °C. For macrophage stimulation, the cell cultures were treated with LPS (1 µg/mL) and incubated for additional 24 h in the presence or absence of the chalcone samples (samples 1–41) that were used at concentrations of 100, 20, 4 and 0.8 µg/mL. In some experiments, a nitric oxide (NO) inhibitor, L-NMMA (20 μg/mL), was used as a positive control of NO inhibition, and a non-steroidal anti-inflammatory drug indomethacin, known to inhibit production of prostaglandins, was used as a positive control of PGE2 inhibition.
(§2) The frozen culture supernatants samples were thawed and immediately analyzed using commercially available enzyme-linked immunosorbent assay (ELISA) kits to measure TNF-α, IL-1β (BD Biosciences) and PGE2 (R&D Systems, Minneapolis, MN, USA), according to the manufacturer’s instructions. Standard curves for each mediator were generated using reference cytokine concentrations supplied by the manufacturer. Nitric oxide (NO) generation was assessed by the Griess method to measure nitrites, which are stable breakdown NO products.

M. tuberculosis H37Rv = assay: microbe, parasite or virus in culture; format: cell-based, Mycobacterium tuberculosis; details: Mycobacterium tuberculosis
[5] = system: IL-1β production by LPS-stimulated RAW 264.7 macrophages; assay: Inhibition of IL-1β production by LPS-stimulated macrophages (ELISA); format: cell-based, murine; details: Mus musculus, RAW264.7, 24 h, read-out: IC50 IL-1β
Protocol: as §1, §2

[6] = Mus musculus, RAW264.7, 24 h, LPS (1 µg/mL)-stimulated RAW 264.7, 24 h, read-out: IC50 NO
[7] = RAW264.7, LPS (1 µg/mL)-stimulated RAW 264.7, 24 h, mean ± SD, n = 3
[8] = H37RV, 120 h, read-out: MIC50 M. tuberculosis H37Rv
[9] = Table 5, same values as M. tuberculosis H37Rv in Table 3, read-out: MIC50
[10] = LPS (1 µg/mL)-stimulated RAW 264.7, 24 h, read-out: IC50 NO
[11] = Mus musculus, RAW264.7, 24 h, read-out: IC50 NO, LPS (1 µg/mL)-stimulated RAW 264.7, 24 h

Structure (SMILES)	IC50 [1, 6]	IC50 [2]	MIC50 (M. bovis BCG)	MIC90 (M. bovis BCG)	IC50 [3, 7]	also measured
O=C(/C=C/c1ccc2c(c1)OCO2)c1ccccc1Cl [Chalcone 35]	160 ± 4.7 µM	> 349 µM	> 349 µM	> 349 µM	> 349 µM	
O=C(/C=C/c1ccc([N+](=O)[O-])cc1)c1ccc(Br)cc1 [Chalcone 38]	> 301 µM	> 301 µM	97.4 ± 4.2 µM (≈ 32.4 µg/mL)	221 ± 5.6 µM (≈ 73.3 µg/mL)	> 301 µM	
COc1ccc(/C=C/C(=O)c2ccccc2Cl)cc1OC [Chalcone 36]	188 ± 4.1 µM	> 330 µM	270 ± 3.9 µM (≈ 81.6 µg/mL)	> 330 µM	> 330 µM	
[H]/N=C(/NC)NCCC[C@H](N)C(=O)O [L-NMMA, N^G-Monomethyl-L-arginine acetate salt, reference compound]	78.3 ± 6.5 µM					
COc1ccc(/C=C/C(=O)c2ccc(C)cc2)cc1 [Chalcone 21]	30.6 ± 4.7 µM	> 396 µM	33.3 ± 5.4 µM (≈ 8.4 µg/mL)	362 ± 5.9 µM (≈ 91.4 µg/mL)	> 396 µM	IC50 [4]: 50.1 ± 1 µM; MIC90 (M. tuberculosis H37Rv; H37RV, 120 h): 368 ± 5.2 µM (≈ 92.9 µg/mL); MIC50 (M. tuberculosis H37Rv; [8]): 66.9 ± 6.2 µM (≈ 16.9 µg/mL); MIC50 (M. tuberculosis H37Rv; [9]): 66.9 ± 6.2 µM (≈ 16.9 µg/mL); IC50 [5]: > 396 µM
COc1ccc2c(c1)c(CC(=O)O)c(C)n2C(=O)c1ccc(Cl)cc1 [indomethacin, reference compound]						prostaglandin (PGE2) value ([4]; 0.0004 µg/mL): 340.7 ± 1.1 pg/mL; prostaglandin (PGE2) value ([4]; 0.004 µg/mL): 271.6 ± 2.6 pg/mL; prostaglandin (PGE2) value ([4]; 0.04 µg/mL): 171.8 ± 1.2 pg/mL; prostaglandin (PGE2) value ([4]; 0.2 µg/mL): 11.8 ± 1.9 pg/mL
COc1ccc(C(=O)/C=C/c2ccc(Cl)cc2)cc1 [Chalcone 26]	25.3 ± 3.9 µM	> 367 µM	91.2 ± 5 µM (≈ 24.9 µg/mL)	287 ± 7.8 µM (≈ 78.2 µg/mL)	> 367 µM	IC50 [4]: 57.7 ± 1.9 µM; IC50 [5]: > 367 µM
COc1ccc(C(=O)/C=C/c2ccc3c(c2)OCO3)cc1 [Chalcone 28]		> 354 µM	> 354 µM	> 354 µM	> 354 µM	IC50 [4]: 22.1 ± 0.63 µM; IC50 [1, 10]: 14.9 ± 4.1 µM; IC50 [1, 11]: < 21 µM; IC50 [5]: > 354 µM
O=C(/C=C/c1ccc2c(c1)OCO2)c1ccc(Br)cc1 [Chalcone 12]		> 302 µM	84.9 ± 4.7 µM (≈ 28.1 µg/mL)	229.6 ± 2.2 µM (≈ 76 µg/mL)	> 302 µM	IC50 [4]: 50.3 ± 0.3 µM; IC50 [1, 10]: 19.6 ± 3.3 µM; IC50 [1, 11]: < 21 µM; IC50 [5]: > 302 µM
Cc1ccc(C(=O)/C=C/c2ccc(N(C)C)cc2)cc1 [Chalcone 19]	27.8 ± 3.8 µM	> 377 µM	56.4 ± 4.4 µM (≈ 15 µg/mL)	322.7 ± 1.7 µM (≈ 85.6 µg/mL)	> 377 µM	IC50 [4]: > 377 µM; MIC90 (M. tuberculosis H37Rv; H37RV, 120 h): > 377 µM; MIC50 (M. tuberculosis H37Rv; [8]): 112 ± 6.4 µM (≈ 29.8 µg/mL); MIC50 (M. tuberculosis H37Rv; [9]): 112 ± 6.4 µM (≈ 29.8 µg/mL); IC50 [5]: > 377 µM
O=C(/C=C/c1ccccc1)c1ccccc1 [Chalcone 1, 1,3-diphenyl-2-propenone, reference compound]	41.6 ± 2 µM	177 ± 9.5 µM	137 ± 4.7 µM (≈ 28.6 µg/mL)	383 ± 9.1 µM (≈ 79.8 µg/mL)	> 480 µM	
O=C(/C=C/c1ccc(F)cc1)c1ccccc1Cl [Chalcone 32]	> 384 µM	> 384 µM	> 384 µM	> 384 µM	> 384 µM	
COc1ccc(/C=C/C(=O)c2ccc(Br)cc2)cc1OC [Chalcone 14]	58.9 ± 6.8 µM	> 288 µM	> 288 µM	> 288 µM	> 288 µM	
COc1ccc(/C=C/C(=O)c2ccc(Br)cc2)cc1 [Chalcone 13]	52.9 ± 3.6 µM	> 315 µM	221 ± 3.6 µM (≈ 70 µg/mL)	> 315 µM	> 315 µM	
COc1ccc(C(=O)/C=C/c2ccc(N(C)C)cc2)cc1 [Chalcone 27]	44.6 ± 5.2 µM	226 ± 3.5 µM	309 ± 5 µM (≈ 86.9 µg/mL)	> 355 µM	> 355 µM	
COc1ccc(/C=C/C(=O)c2ccccc2)cc1 [Chalcone 6]		> 420 µM				IC50 [1, 11]: > 420 µM; IC50 ([3]; RAW264.7, 24 h): > 420 µM
O=C(/C=C/c1ccccn1)c1ccccc1 [Chalcone 7]	> 478 µM	> 478 µM	35.8 ± 7.2 µM (≈ 7.49 µg/mL)	441 ± 9.5 µM (≈ 92.2 µg/mL)	> 478 µM	MIC90 (M. tuberculosis H37Rv; H37RV, 120 h): > 478 µM; MIC50 (M. tuberculosis H37Rv; [8]): > 478 µM
O=C(/C=C/c1ccc([N+](=O)[O-])cc1)c1ccccc1 [Chalcone 37]	58.6 ± 4.5 µM	> 395 µM	> 395 µM	> 395 µM	> 395 µM	IC50 [4]: 322 ± 3.7 µM; IC50 [5]: > 395 µM
Cc1ccc(C(=O)/C=C/c2ccc3c(c2)OCO3)cc1 [Chalcone 20]	30.1 ± 1.2 µM	> 376 µM	> 376 µM	> 376 µM	> 376 µM	IC50 [4]: 147.4 ± 1.2 µM; IC50 [5]: > 376 µM
Cc1ccc(C(=O)/C=C/c2ccccc2Cl)cc1 [Chalcone 23]	> 390 µM	> 390 µM	> 390 µM	> 390 µM	> 390 µM	
Cc1ccc(C(=O)/C=C/c2ccc(Cl)cc2)cc1 [Chalcone 18]	150 ± 3.8 µM	304 ± 4.2 µM	71.3 ± 4.8 µM (≈ 18.3 µg/mL)	323 ± 7.1 µM (≈ 83 µg/mL)	> 390 µM	
COc1ccc(/C=C/C(=O)c2ccc(C)cc2)cc1OC [Chalcone 22]	> 354 µM	> 354 µM	> 354 µM	> 354 µM	> 354 µM	
Cc1ccc(C(=O)/C=C/c2ccccc2)cc1 [Chalcone 16]	> 450 µM	> 450 µM	> 450 µM	> 450 µM	> 450 µM	
Cc1ccc(C(=O)/C=C/c2ccc([N+](=O)[O-])cc2)cc1 [Chalcone 39]	114 ± 4.8 µM	329 ± 3.9 µM	28.1 ± 5.4 µM (≈ 7.51 µg/mL)	344 ± 6.3 µM (≈ 92 µg/mL)	> 373 µM	MIC90 (M. tuberculosis H37Rv; H37RV, 120 h): > 373 µM; MIC50 (M. tuberculosis H37Rv; [8]): > 373 µM
COc1ccc(/C=C/C(=O)c2ccccc2Cl)cc1 [Chalcone 34]	> 367 µM	> 367 µM	> 367 µM	> 367 µM	> 367 µM	
